Assay results: patent US12459951B2, “Compounds that interact with RAS superfamily proteins for treatment of cancers, inflammatory diseases, rasopathies, and fibrotic disease” (SHY Therapeutics, LLC, priority 2022, dated 2025)
Like-named read-outs stand apart in the source and are kept apart here.

Columns and labels:
[1] = system: Smad2/Smad3 phosphorylation; assay: Phospho-Smad2/3 Inhibition Assay (western blot), Panc-1; format: cell-based, human; conditions: at 10 μM, Panc-1 pancreatic cancer cell line; starred symbols = activation
Outline: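 Western blotting of lysates (15-50 μg protein) read phosphorylation of Smad2 Ser465/467 and Smad3 Ser423/425. Before lysis, Panc-1 cells got 1 h of 10 ng/ml TGF-b1 following 3 h compound exposure at 37° C (10 μM final, or serial dilutions for IC50, 0.3% DMSO) after overnight 0.5% FBS starvation.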

TNF-alpha = TNF-alpha Quantification Assay (ELISA), LPS-stimulated RAW 264.7; format: cell-based; parameters: inhibition: dose or concentration left out as unconfirmed; conditions: Mus musculus, RAW264.7, read-out: TNFα: % inh.
[2] = system: MiaPaca-2 (expressing KRAS G12C mutant); assay: Proliferation Assay (Cell Viability Assay); format: cell-based; conditions: Homo sapiens, MIA PaCa-2
Outline: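 After 2–4 days' exposure at 37 °C, 5% CO2 to a single 10 μM final concentration or a dilution series (IC50), percent proliferation inhibition was derived from CellTiter 96 Aqueous One viability readings. The medium contained 0.3% DMSO and 10% FBS. KRAS G12C MiaPaca-2 cells were plated at 2000–5000/well the day before.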

IL6 = assay: IL-6 Quantification Assay (ELISA), LPS-stimulated RAW 264.7; format: cell-based; parameters: inhibition: dose or concentration left out as unconfirmed; conditions: Mus musculus, RAW264.7; read-out: IL-6: % inh.
[3] = read-out: Proliferation in MiaPaca-2: IC50

| IC50 [2, 3] [nM] | IC50 ([2]; MiaPaca2, pancreatic, KRas G12C, read-out: Proliferation assay IC50) [nM] | IC50 ([2]; Proliferation assay, MiaPaca-2, read-out: MiaPaca-2 IC50 (nM) Pancreatic) [nM] | Structure (SMILES) | % inh of Smad2/3 phosphorylation in Panc-1 [1] | inhibition at 10 µM (TNF-alpha) [%] | inhibition (IL6) [%] | inhibition (TNF-alpha) [%] |
| --- | --- | --- | --- | --- | --- | --- | --- |
| > 1000 | – | – | CO[C@H]1C[C@H](Nc2nc(-c3nccn3C)nn3cc(-c4ccn(C)n4)c(C4CC4)c23)C1 [Compound 275, 5-Cyclopropyl-N-((1r,3r)-3-methoxycyclobutyl)-2-(1-methyl-1H-imidazol-2-yl)-6-(1-methyl-1H-pyrazol-3-yl)pyrrolo[2,1-f][1,2,4]triazin-4-amine] | B (B = 26-45% inhibition) | 0 | 0 | – |
| < 150 | – | – | Cc1c(-c2ccn(C)n2)cn2nc(-c3nccn3C)nc(Nc3cc(-c4ccccn4)ccn3)c12 [Compound 248, N-([2,4′-Bipyridin]-2′-yl)-5-methyl-2-(1-methyl-1H-imidazol-2-yl)-6-(1-methyl-1H-pyrazol-3-yl)pyrrolo[2,1-f][1,2,4]triazin-4-amine] | D* (D* = 76-100% activation) | – | 75 to 100 | 25 to 49 |
| > 1000 | – | – | CO[C@H]1CC[C@@H](Nc2nc(-c3ccccn3)nn3cc(-c4ccn(C(C)C)n4)c(-c4ccccc4)c23)C1 (racemic) [Compound 24, rac 6-(1-Isopropyl-1H-pyrazol-3-yl)-N-((1R,3S)-3-methoxycyclopentyl)-5-phenyl-2-(pyridin-2-yl)pyrrolo[2,1-f][1,2,4]triazin-4-amine] | B (B = 26-45% inhibition) | 25 to 49 | 25 to 49 | – |
| < 150 | – | – | COc1ccnc(Nc2nc(-c3nccn3C)nn3cc(-c4ccn(C(C)C)n4)c(C)c23)n1 [Compound 53, 6-(1-Isopropyl-1H-pyrazol-3-yl)-N-(4-methoxypyrimidin-2-yl)-5-methyl-2-(1-methyl-1H-imidazol-2-yl)pyrrolo[2,1-f][1,2,4]triazin-4-amine] | B (B = 26-45% inhibition) | 1 to 24 | 50 to 74 | – |
| < 150 | – | – | Cc1c(-c2ccn(C)n2)cn2nc(-c3nccn3C)nc(Nc3cc(C(C)C)[nH]n3)c12 [Compound 268, N-(5-Isopropyl-1H-pyrazol-3-yl)-5-methyl-2-(1-methyl-1H-imidazol-2-yl)-6-(1-methyl-1H-pyrazol-3-yl)pyrrolo[2,1-f][1,2,4]triazin-4-amine] | C (C = 46-75% inhibition) | 25 to 49 | 75 to 100 | – |
| < 150 | – | – | Cc1c(-c2ccn(C(C)C)n2)cn2nc(-c3nccn3C)nc(Nc3ccncn3)c12 [Compound 55, 6-(1-Isopropyl-1H-pyrazol-3-yl)-5-methyl-2-(1-methyl-1H-imidazol-2-yl)-N-(pyrimidin-4-yl)pyrrolo[2,1-f][1,2,4]triazin-4-amine] | D (D = 76-100% inhibition) | 1 to 24 | 1 to 24 | – |
| 150 to 500 | – | – | COc1ccc(Nc2nc(-c3nccn3C)nn3cc(-c4ccn(C(C)C)n4)c(C)c23)nn1 [Compound 74, 6-(1-Isopropyl-1H-pyrazol-3-yl)-N-(6-methoxypyridazin-3-yl)-5-methyl-2-(1-methyl-1H-imidazol-2-yl)pyrrolo[2,1-f][1,2,4]triazin-4-amine] | A* (A* = 1-25% activation) | 1 to 24 | 1 to 24 | – |
| < 150 | < 150 | 1 to 10 | COc1ccnc(Nc2nc(-c3nccn3C)nn3cc(-c4ccn(C(C)C)n4)c(C)c23)c1 [Compound 58, 6-(1-Isopropyl-1H-pyrazol-3-yl)-N-(4-methoxypyridin-2-yl)-5-methyl-2-(1-methyl-1H-imidazol-2-yl)pyrrolo[2,1-f][1,2,4]triazin-4-amine] | C (C = 46-75% inhibition) | 1 to 24 | 25 to 49 | – |
